Measured values as given in ChEMBL document CHEMBL4477270, “Design, synthesis, and protein methyltransferase activity of a unique set of constrained amine containing compounds” (Bioorg Med Chem Lett, 2016).

How the values were obtained:
[1] = biological target: Protein N-lysine methyltransferase METTL21D (Homo sapiens) (UniProt Q9H867); experiment: Inhibition of METTL21D (unknown origin) using biotin-labeled histone substrate assessed as residual activity at 50 uM in presence of [3H-Me]SAM by scintillation proximity assay relative to control
Protein N-lysine methyltransferase METTL21D (Homo sapiens), sequence (Q9H867 whole entry): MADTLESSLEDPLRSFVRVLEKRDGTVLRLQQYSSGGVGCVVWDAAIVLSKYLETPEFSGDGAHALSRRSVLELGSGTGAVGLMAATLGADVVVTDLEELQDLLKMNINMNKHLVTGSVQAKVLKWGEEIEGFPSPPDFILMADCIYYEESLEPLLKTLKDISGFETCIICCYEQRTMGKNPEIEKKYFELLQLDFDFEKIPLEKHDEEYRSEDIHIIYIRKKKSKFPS

[2] = biological target: Histone-lysine N-methyltransferase, H3 lysine-36 specific (Homo sapiens) (UniProt Q96L73); experiment: Inhibition of NSD1 (unknown origin) using biotin-labeled histone substrate assessed as residual activity at 50 uM in presence of [3H-Me]SAM by scintillation proximity assay relative to control
[3] = biological target: T1, Histone-lysine N-methyltransferase NSD2 (Homo sapiens) (UniProt O96028); experiment: Inhibition of NSD2 (unknown origin) using biotin-labeled histone substrate assessed as residual activity at 50 uM in presence of [3H-Me]SAM by scintillation proximity assay relative to control
T1 sequence (whole entry): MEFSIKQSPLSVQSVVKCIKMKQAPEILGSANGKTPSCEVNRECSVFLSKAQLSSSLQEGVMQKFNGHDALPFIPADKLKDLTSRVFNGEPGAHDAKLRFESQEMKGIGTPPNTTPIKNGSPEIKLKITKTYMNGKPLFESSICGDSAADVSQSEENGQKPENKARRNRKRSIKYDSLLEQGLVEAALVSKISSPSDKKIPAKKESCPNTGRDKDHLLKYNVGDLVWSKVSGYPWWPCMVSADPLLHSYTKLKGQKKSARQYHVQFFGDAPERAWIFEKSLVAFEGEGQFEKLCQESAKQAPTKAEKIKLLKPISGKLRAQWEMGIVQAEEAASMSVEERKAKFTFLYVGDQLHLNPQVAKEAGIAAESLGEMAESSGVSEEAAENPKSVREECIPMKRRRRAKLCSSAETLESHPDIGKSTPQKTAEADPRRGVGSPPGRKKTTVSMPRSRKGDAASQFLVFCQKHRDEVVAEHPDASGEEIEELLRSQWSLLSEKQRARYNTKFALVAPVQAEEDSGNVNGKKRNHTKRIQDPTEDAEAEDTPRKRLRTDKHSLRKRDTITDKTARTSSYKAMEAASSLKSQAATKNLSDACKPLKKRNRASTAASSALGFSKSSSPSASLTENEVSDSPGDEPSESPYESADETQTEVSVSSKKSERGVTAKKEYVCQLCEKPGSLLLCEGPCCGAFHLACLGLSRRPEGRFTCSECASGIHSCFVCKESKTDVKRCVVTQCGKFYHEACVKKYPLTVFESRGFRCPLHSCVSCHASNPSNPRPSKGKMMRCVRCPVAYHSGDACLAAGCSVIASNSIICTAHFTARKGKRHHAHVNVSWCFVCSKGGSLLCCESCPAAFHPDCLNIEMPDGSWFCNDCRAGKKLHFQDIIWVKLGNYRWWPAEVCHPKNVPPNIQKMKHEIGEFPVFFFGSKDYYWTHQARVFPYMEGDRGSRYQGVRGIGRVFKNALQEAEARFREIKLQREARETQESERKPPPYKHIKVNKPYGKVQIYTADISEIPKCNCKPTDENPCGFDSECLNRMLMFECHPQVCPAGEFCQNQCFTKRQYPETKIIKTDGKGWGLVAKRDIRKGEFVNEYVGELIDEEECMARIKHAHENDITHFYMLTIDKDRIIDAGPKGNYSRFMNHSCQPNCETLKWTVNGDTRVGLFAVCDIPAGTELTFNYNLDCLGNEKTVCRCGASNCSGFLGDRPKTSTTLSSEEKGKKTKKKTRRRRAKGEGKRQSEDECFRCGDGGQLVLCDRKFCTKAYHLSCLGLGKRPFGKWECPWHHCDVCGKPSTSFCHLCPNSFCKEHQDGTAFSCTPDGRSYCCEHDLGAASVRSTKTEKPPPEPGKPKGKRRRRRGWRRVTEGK

[4] = biological target: Protein arginine N-methyltransferase 5 (Homo sapiens) (UniProt O14744); experiment: Inhibition of PRMT5 (unknown origin) using biotin-labeled histone substrate assessed as residual activity at 50 uM in presence of [3H-Me]SAM by scintillation proximity assay relative to control
[5] = biological target: T2, N-lysine methyltransferase KMT5A (Homo sapiens) (UniProt Q9NQR1); experiment: Inhibition of SETD8 (unknown origin) using biotin-labeled histone H4 (1 to 24 residues) as substrate assessed as residual activity at 50 uM in presence of [3H-Me]SAM by scintillation proximity assay relative to control
T2 sequence (whole entry): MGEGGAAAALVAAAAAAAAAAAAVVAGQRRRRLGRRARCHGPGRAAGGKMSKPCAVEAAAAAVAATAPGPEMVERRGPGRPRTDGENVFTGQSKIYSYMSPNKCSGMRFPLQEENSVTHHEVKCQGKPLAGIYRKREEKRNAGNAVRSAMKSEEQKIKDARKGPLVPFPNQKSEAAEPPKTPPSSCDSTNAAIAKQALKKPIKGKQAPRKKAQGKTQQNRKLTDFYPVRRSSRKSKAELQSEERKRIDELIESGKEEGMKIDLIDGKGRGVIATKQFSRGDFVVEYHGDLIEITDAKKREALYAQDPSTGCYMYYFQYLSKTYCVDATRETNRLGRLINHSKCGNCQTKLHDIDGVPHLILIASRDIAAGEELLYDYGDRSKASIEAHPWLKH

[6] = biological target: Histone-lysine N-methyltransferase ASH1L (Homo sapiens) (UniProt Q9NR48); experiment: Inhibition of ASH1L (unknown origin) using biotin-labeled histone substrate assessed as residual activity at 50 uM in presence of [3H-Me]SAM by scintillation proximity assay relative to control
[7] = biological target: Histone-lysine N-methyltransferase 2C (Homo sapiens) (UniProt Q8NEZ4); experiment: Inhibition of MLL3 (unknown origin) using biotin-labeled histone substrate assessed as residual activity at 50 uM in presence of [3H-Me]SAM by scintillation proximity assay relative to control
Histone-lysine N-methyltransferase 2C (Homo sapiens), sequence (Q8NEZ4 whole entry): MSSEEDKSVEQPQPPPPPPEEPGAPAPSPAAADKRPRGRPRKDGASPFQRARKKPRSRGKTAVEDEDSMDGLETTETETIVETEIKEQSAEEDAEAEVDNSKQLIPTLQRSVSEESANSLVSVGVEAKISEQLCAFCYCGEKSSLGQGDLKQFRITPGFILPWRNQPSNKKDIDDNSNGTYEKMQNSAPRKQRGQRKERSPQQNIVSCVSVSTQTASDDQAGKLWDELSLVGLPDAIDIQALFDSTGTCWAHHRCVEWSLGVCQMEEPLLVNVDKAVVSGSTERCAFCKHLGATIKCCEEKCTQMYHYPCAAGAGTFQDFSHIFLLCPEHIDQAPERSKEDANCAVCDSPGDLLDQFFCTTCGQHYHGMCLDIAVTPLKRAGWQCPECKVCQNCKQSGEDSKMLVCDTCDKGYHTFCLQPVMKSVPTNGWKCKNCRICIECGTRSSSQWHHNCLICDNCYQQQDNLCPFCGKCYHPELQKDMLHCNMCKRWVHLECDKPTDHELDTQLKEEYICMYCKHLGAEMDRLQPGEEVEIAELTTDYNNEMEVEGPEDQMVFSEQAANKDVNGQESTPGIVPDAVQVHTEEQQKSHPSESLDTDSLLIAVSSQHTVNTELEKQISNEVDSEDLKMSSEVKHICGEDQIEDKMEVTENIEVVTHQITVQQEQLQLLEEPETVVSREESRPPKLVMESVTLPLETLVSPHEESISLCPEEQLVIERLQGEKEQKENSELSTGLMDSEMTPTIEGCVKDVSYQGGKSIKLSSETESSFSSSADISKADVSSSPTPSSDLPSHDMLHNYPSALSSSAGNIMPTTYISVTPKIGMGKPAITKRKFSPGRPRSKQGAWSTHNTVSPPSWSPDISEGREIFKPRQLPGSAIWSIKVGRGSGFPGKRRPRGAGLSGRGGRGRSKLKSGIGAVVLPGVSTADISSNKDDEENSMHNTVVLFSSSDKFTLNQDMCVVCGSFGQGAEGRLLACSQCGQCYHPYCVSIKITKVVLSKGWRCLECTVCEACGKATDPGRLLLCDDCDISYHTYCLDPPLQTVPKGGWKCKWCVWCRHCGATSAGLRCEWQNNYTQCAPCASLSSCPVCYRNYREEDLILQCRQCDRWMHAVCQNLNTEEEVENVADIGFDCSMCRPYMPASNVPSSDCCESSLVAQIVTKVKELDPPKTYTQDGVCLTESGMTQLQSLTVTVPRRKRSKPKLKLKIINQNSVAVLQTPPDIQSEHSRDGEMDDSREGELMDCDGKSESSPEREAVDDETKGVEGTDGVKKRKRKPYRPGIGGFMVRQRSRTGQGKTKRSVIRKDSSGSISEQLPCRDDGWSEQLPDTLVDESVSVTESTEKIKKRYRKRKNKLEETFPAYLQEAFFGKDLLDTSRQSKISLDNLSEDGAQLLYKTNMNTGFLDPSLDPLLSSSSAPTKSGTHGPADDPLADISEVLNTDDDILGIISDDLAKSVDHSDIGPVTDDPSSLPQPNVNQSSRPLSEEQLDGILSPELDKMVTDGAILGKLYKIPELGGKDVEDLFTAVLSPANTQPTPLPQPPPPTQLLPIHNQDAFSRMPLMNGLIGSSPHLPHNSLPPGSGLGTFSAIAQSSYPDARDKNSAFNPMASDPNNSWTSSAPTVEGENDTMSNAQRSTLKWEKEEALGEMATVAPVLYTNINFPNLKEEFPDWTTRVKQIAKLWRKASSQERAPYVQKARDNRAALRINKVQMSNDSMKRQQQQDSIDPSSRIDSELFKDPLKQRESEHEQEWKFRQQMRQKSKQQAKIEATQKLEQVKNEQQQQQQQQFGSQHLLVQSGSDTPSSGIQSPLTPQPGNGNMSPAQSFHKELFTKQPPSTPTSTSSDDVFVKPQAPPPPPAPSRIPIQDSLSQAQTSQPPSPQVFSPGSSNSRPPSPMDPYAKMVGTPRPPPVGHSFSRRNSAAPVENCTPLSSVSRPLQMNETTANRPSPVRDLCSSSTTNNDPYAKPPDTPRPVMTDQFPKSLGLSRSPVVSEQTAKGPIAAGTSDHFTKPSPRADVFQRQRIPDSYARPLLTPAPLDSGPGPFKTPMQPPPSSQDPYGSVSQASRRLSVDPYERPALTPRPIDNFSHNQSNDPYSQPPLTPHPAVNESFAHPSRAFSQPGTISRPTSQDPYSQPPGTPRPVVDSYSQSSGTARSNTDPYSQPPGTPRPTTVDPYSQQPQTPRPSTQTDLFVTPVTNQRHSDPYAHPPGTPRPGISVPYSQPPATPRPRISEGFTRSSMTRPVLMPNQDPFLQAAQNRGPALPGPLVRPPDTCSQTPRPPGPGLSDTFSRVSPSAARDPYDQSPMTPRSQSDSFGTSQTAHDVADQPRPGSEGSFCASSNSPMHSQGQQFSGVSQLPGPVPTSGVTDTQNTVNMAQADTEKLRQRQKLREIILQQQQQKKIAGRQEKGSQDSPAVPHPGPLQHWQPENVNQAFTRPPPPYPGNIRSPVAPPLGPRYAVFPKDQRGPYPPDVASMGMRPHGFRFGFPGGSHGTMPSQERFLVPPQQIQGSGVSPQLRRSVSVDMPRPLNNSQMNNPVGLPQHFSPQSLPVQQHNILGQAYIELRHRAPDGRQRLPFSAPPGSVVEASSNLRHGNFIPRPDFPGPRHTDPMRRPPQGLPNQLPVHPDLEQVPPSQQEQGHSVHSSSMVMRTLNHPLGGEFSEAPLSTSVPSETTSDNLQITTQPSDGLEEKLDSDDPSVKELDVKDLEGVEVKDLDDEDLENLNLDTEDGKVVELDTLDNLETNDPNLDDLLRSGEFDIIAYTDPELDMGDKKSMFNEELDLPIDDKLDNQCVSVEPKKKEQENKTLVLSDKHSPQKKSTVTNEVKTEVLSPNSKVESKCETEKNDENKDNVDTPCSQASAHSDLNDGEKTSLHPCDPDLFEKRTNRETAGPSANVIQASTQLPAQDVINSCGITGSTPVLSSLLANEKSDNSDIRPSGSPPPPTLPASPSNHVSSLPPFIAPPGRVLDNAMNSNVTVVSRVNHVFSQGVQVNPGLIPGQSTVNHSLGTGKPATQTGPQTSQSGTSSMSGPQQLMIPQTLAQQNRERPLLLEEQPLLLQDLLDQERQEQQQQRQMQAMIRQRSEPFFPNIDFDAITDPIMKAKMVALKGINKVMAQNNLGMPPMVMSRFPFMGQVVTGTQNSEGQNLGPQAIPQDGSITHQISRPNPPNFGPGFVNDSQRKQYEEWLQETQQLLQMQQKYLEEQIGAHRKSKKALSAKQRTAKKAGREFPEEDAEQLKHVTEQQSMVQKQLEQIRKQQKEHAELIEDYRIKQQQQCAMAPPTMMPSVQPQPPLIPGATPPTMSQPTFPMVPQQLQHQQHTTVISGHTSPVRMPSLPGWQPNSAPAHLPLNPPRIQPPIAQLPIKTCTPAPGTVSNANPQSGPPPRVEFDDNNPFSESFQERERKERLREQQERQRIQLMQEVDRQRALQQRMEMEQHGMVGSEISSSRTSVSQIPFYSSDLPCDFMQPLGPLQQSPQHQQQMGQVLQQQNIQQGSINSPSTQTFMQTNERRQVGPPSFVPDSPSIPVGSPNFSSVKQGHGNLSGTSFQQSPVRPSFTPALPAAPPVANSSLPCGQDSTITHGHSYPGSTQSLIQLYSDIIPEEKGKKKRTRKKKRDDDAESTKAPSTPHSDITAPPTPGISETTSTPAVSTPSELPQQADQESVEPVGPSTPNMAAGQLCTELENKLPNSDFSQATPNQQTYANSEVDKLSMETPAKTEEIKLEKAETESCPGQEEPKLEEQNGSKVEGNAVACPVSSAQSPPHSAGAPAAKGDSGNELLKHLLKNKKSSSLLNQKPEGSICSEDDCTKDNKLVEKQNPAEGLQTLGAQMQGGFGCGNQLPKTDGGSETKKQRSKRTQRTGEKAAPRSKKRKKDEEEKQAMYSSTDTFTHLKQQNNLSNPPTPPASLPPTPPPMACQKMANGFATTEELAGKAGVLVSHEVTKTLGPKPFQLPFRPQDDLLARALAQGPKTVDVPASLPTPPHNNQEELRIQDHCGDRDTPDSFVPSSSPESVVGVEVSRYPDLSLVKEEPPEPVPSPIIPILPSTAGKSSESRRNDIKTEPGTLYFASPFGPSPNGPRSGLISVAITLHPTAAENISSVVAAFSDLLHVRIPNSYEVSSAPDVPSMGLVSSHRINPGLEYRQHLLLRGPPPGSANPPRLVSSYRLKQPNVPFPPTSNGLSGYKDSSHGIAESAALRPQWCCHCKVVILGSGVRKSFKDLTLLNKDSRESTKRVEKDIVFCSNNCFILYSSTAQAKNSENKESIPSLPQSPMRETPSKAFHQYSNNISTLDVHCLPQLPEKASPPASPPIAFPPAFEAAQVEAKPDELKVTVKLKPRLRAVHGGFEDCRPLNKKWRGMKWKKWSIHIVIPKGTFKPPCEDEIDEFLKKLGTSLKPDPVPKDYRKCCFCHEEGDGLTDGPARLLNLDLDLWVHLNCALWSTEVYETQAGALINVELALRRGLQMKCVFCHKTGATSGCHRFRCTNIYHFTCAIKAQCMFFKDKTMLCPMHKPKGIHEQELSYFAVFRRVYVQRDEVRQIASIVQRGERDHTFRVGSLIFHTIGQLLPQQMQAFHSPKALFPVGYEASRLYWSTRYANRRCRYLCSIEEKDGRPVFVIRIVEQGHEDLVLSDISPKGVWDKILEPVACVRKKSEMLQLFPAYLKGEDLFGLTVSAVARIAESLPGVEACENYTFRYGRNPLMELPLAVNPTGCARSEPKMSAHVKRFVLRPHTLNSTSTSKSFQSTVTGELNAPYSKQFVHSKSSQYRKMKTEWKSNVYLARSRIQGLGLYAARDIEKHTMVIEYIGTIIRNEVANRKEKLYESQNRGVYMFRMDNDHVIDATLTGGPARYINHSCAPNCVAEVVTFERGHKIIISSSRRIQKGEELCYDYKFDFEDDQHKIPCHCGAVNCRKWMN

Compound | Activity [1] | Activity [2] | Activity [3] | Activity [4] | Activity [5] | Activity [6] | Activity [7]
CN1CCC2(CCCN2C(=O)c2cccc(Br)c2)CC1 | 111% | 91% | 99% | 98% | 91% | 93% | 97%
CN1CC[C@H]2CN(C(=O)c3cccc(Br)c3)C[C@H]21 | 105% | 96% | 102% | 113% | 105% | 102% | 105%
O=C(c1cccc(Br)c1)N1CC[C@@H]2[C@@H](CC3CCCCN32)C1 (stereo partly drawn) | 106% | 93% | 98% | 104% | 104% | 95% | 97%
O=C(c1cccc(Br)c1)N1C[C@@H]2CC3CCCN3[C@@H]2C1 (stereo partly drawn) | 106% | 106% | 101% | 96% | 104% | 108% | 97%
O=C(c1cccc(Br)c1)N1CC[C@H]2NCC[C@H]2C1 | 103% | 95% | 97% | 114% | 113% | 96% | 103%
O=C(c1cccc(Br)c1)N1C[C@@H]2CC3CCCCN3[C@@H]2C1 (stereo partly drawn) | 106% | 95% | 96% | 93% | 106% | 101% | 102%
O=C(c1cccc(Br)c1)N1C[C@@H]2CCN[C@@H]2C1 | 98% | 93% | 94% | 114% | 105% | 95% | 95%
O=C(c1cccc(Br)c1)N1CCC2CNCC2C1 (stereo not drawn) | 113% | 93% | 97% | 105% | 103% | 103% | 104%
CN1C[C@H]2CCCN(C(=O)c3cccc(Br)c3)[C@H]2C1 | 102% | 99% | 96% | 108% | 85% | 96% | 105%
O=C(c1cccc(Br)c1)N1C[C@H]2CCCN[C@H]2C1 | 102% | 107% | 89% | 117% | 90% | 104% | 116%
CN1CCC[C@@H]2CN(C(=O)c3cccc(Br)c3)C[C@@H]21 | 100% | 94% | 95% | 107% | 45% | 99% | 106%
O=C(c1cccc(Br)c1)N1CCC[C@@H]2CNC[C@@H]21 | 106% | 98% | 101% | 109% | 103% | 98% | 108%

The next lines start with the values.

Activity [1] | Activity [2] | Activity [3] | Activity [4] | Activity [5] | Activity [6] | Activity [7] | Compound
99% | 101% | 99% | 97% | 96% | 95% | 105% | CN1CCCC12CCCN(C(=O)c1cccc(Br)c1)C2 (stereo not drawn)
104% | 101% | 105% | 96% | 106% | 99% | 97% | CN1CCCC2(CCCN2C(=O)c2cccc(Br)c2)C1 (stereo not drawn)
106% | 92% | 104% | 117% | 105% | 100% | 107% | O=C(c1cccc(Br)c1)N1CCCC2(CCNCC2)C1
103% | 109% | 96% | 103% | 106% | 104% | 101% | O=C(c1cccc(Br)c1)N1CCCC2(CCCCN2)C1 (stereo not drawn)
101% | 96% | 103% | 110% | 101% | 95% | 103% | O=C(c1cccc(Br)c1)N1CCC2(CCNCC2)CC1
105% | 96% | 99% | 105% | 91% | 97% | 99% | CN1CCC2(CC1)CCN(C(=O)c1cccc(Br)c1)CC2
99% | 91% | 101% | 102% | 107% | 93% | 96% | CN1CCCC2(CCCN(C(=O)c3cccc(Br)c3)C2)C1 (stereo not drawn)
99% | 96% | 103% | 104% | 43% | 98% | 104% | CN1CCCCC12CCN(C(=O)c1cccc(Br)c1)CC2
91% | 82% | 101% | 107% | 73% | 94% | 103% | CN1CCCCC12CCCN(C(=O)c1cccc(Br)c1)C2 (stereo not drawn)
98% | 101% | 105% | 95% | 106% | 103% | 94% | CN1CCC2(CCCN(C(=O)c3cccc(Br)c3)C2)C1 (stereo not drawn)
120% | 93% | 99% | 108% | 103% | 91% | 106% | CN1CCCC12CCN(C(=O)c1cccc(Br)c1)CC2
102% | 95% | 99% | 103% | 49% | 85% | 96% | C[N+]1(C)CCCCC12CCN(C(=O)c1cccc(Br)c1)CC2
